# Paper PMC3005942, “Cloning, Expression, and Purification of a Nitric Oxide Synthase-Like Protein from Bacillus cereus” (Biochemistry Research International, 2009)
# Experiments:
# bcNOS [1] = target: T1, bcNOS (Bacillus cereus, UniProt Q814I7); assay: H2O2-dependent NOHA oxidation to nitrite, plate reader; format: biochemical; details: H2O2, 25 °C, activator
# T1 construct: gene BC_5444; full length, 356 residues, 43 kDa, homodimer; N-terminal His6 tag (pET28a, NdeI/EcoRI), E. coli BL21(DE3) pLysS; heme protein
# T1 sequence (Q814I7 1-356): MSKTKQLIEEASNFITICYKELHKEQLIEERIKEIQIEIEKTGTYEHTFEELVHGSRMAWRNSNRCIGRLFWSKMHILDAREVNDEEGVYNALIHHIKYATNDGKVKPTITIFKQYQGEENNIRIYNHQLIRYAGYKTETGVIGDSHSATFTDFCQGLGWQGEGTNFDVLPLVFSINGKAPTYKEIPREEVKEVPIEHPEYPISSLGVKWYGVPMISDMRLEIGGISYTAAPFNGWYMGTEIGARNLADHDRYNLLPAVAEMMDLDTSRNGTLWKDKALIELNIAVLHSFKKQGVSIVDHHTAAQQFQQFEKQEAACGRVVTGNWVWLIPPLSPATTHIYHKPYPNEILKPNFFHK
# bcNOS [2] = target: T1, bcNOS; assay: difference spectroscopy, double-reciprocal analysis; format: binding; details: distal sixth ligand of ferric heme
Structure (SMILES),"H2O2-dependent NOHA oxidation to nitrite, plate reader (bcNOS [1])",Kd (bcNOS [2])
Nc1nc2c(c(=O)[nH]1)N[C@@H](CNc1ccc(C(=O)N[C@@H](CCC(=O)O)C(=O)O)cc1)CN2 [THF],in the presence of NOHA and THF the activity doubled,
c1c[nH]cn1 [imidazole],,181 ± 13 µM
